Experimental data as given in ChEMBL document CHEMBL1124625, “Flavones. 2. Synthesis and structure-activity relationship of flavodilol and its analogues, a novel class of antihypertensive agents with catecholamine depleting properties” (J Med Chem, 1989).

How the values were obtained:
Rattus norvegicus [1] = experiment: % decrease in heart 5-HT in anesthetized spontaneously hypertensive rats(SHR) at 5 hours after administration of 75 mg/kg dose perorally; assay type: functional; details: route oral
Rattus norvegicus [2] = experiment: % decrease in hypothalamus DA in anesthetized spontaneously hypertensive rats(SHR) at 5 hours after administration of 75 mg/kg dose perorally; *value significantly different was control.; details: route oral
Rattus norvegicus [3] = experiment: % decrease in hypothalamus DA in anesthetized spontaneously hypertensive rats(SHR) at 5 hours after administration of 150 mg/kg dose perorally; details: route oral
Rattus norvegicus [4] = experiment: % decrease in systolic blood pressure (SBP) in anesthetized spontaneously hypertensive rats(SHR) after administration of 75 mg/kg dose perorally; details: route oral
Rattus norvegicus [5] = experiment: % decrease in hypothalamus norepinephrine in anesthetized spontaneously hypertensive rats(SHR) at 5 hours after administration of 75 mg/kg dose perorally; assay type: functional; details: route oral
Rattus norvegicus [6] = experiment: Systolic blood pressure (SBP) in anesthetized spontaneously hypertensive rats (SHR) before administration of 75 mg/kg dose perorally.; assay type: functional; parameters: unit: mmHg; details: route oral
Rattus norvegicus [7] = experiment: % decrease in systolic blood pressure (SBP) in anesthetized spontaneously hypertensive rats(SHR) after administration of 150 mg/kg dose perorally; details: route oral
Rattus norvegicus [8] = experiment: % decrease in heart norepinephrine in anesthetized spontaneously hypertensive rats(SHR) at 5 hours after administration of 150 mg/kg dose perorally; assay type: functional; details: route oral
Rattus norvegicus [9] = experiment: % decrease in heart norepinephrine in anesthetized spontaneously hypertensive rats(SHR) at 5 hours after administration of 75 mg/kg dose perorally; assay type: functional; details: route oral
Rattus norvegicus [10] = experiment: % decrease in hypothalamus norepinephrine in anesthetized spontaneously hypertensive rats(SHR) at 5 hours after administration of 150 mg/kg dose perorally; assay type: functional; details: route oral
Rattus norvegicus [11] = experiment: Systolic blood pressure (SBP) in anesthetized spontaneously hypertensive rats(SHR) at 7.5 hours after administration of 75 mg/kg dose perorally; NS is not statistically significant.
Rattus norvegicus [12] = experiment: % decrease in heart 5-HT in anesthetized spontaneously hypertensive rats(SHR) at 5 hours after administration of 150 mg/kg dose perorally; assay type: functional; details: route oral
Rattus norvegicus [13] = experiment: % decrease in heart norepinephrine in anesthetized spontaneously hypertensive rats(SHR) at 5 hours after administration of 35 mg/kg dose perorally; assay type: functional; details: route oral
Rattus norvegicus [14] = experiment: % decrease in hypothalamus DA in anesthetized spontaneously hypertensive rats(SHR) at 5 hours after administration of 35 mg/kg dose perorally; details: route oral
Rattus norvegicus [15] = experiment: % decrease in hypothalamus dopamine in anesthetized spontaneously hypertensive rats(SHR) at 5 hours after administration of 75 mg/kg dose perorally; assay type: functional; details: route oral
Rattus norvegicus [16] = experiment: % decrease in heart 5-HT in anesthetized spontaneously hypertensive rats(SHR) at 5 hours after administration of 75 mg/kg dose perorally; value significantly different was control; assay type: functional; details: route oral
Rattus norvegicus [17] = experiment: Systolic blood pressure (SBP) in anesthetized spontaneously hypertensive rats(SHR) at 7.5 hours after administration of 35 mg/kg dose perorally; assay type: functional; details: route oral
Rattus norvegicus [18] = experiment: Systolic blood pressure (SBP) in anesthetized spontaneously hypertensive rats(SHR) before administration of 35 mg/kg dose perorally; assay type: functional; details: route oral
Rattus norvegicus [19] = experiment: % decrease in hypothalamus norepinephrine in anesthetized spontaneously hypertensive rats(SHR) at 5 hours after administration of 17.5 mg/kg dose perorally; assay type: functional; details: route oral
Rattus norvegicus [20] = experiment: % decrease in hypothalamus dopamine in anesthetized spontaneously hypertensive rats(SHR) at 5 hours after administration of 4 mg/kg dose perorally; assay type: functional; details: route oral
Rattus norvegicus [21] = experiment: % decrease in heart 5-HT in anesthetized spontaneously hypertensive rats(SHR) at 5 hours after administration of 4 mg/kg dose perorally; assay type: functional; details: route oral
Rattus norvegicus [22] = experiment: % decrease in heart 5-HT in anesthetized spontaneously hypertensive rats(SHR) at 5 hours after administration of 35 mg/kg dose perorally; value significantly different was control; assay type: functional; details: route oral
Rattus norvegicus [23] = experiment: % decrease in heart norepinephrine in anesthetized spontaneously hypertensive rats(SHR) at 5 hours after administration of 8 mg/kg dose perorally; assay type: functional; details: route oral
Rattus norvegicus [24] = experiment: Systolic blood pressure (SBP) in anesthetized spontaneously hypertensive rats(SHR) at 7.5 hours after administration of 17 mg/kg dose, perorally; assay type: functional; details: route oral
Rattus norvegicus [25] = experiment: % decrease in heart norepinephrine in anesthetized spontaneously hypertensive rats(SHR) at 5 hours after administration of 17.5 mg/kg dose perorally; assay type: functional; details: route oral
Rattus norvegicus [26] = experiment: % decrease in hypothalamus dopamine in anesthetized spontaneously hypertensive rats(SHR) at 5 hours after administration of 8 mg/kg dose perorally; assay type: functional; details: route oral
Rattus norvegicus [27] = experiment: Systolic blood pressure (SBP) in anesthetized spontaneously hypertensive rats(SHR) before administration of 17 mg/kg dose, perorally; assay type: functional; details: route oral
Rattus norvegicus [28] = experiment: % decrease in hypothalamus dopamine in anesthetized spontaneously hypertensive rats(SHR) at 5 hours after administration of 17.5 mg/kg dose perorally; assay type: functional; details: route oral
Rattus norvegicus [29] = experiment: % decrease in systolic blood pressure (SBP) in anesthetized spontaneously hypertensive rats(SHR) after administration of 4 mg/kg dose perorally; details: route oral
Rattus norvegicus [30] = experiment: % decrease in heart 5-HT in anesthetized spontaneously hypertensive rats(SHR) at 5 hours after administration of 8 mg/kg dose perorally; assay type: functional; details: route oral
Rattus norvegicus [31] = experiment: % decrease in hypothalamus norepinephrine in anesthetized spontaneously hypertensive rats(SHR) at 5 hours after administration of 4 mg/kg dose perorally; assay type: functional; details: route oral
Rattus norvegicus [32] = experiment: Systolic blood pressure (SBP) in anesthetized spontaneously hypertensive rats(SHR) at 7.5 hours after administration of 75 mg/kg dose perorally; details: route oral
Rattus norvegicus [33] = experiment: % decrease in hypothalamus norepinephrine in anesthetized spontaneously hypertensive rats(SHR) at 5 hours after administration of 8 mg/kg dose perorally; assay type: functional; details: route oral
Rattus norvegicus [34] = experiment: % decrease in heart 5-HT in anesthetized spontaneously hypertensive rats(SHR) at 5 hours after administration of 17.5 mg/kg dose perorally; value significantly different was control; assay type: functional; details: route oral
Rattus norvegicus [35] = experiment: % decrease in systolic blood pressure (SBP) in anesthetized spontaneously hypertensive rats(SHR) after administration of 8 mg/kg dose perorally; details: route oral
Rattus norvegicus [36] = experiment: % decrease in hypothalamus norepinephrine in anesthetized spontaneously hypertensive rats(SHR) at 5 hours after administration of 35 mg/kg dose perorally; assay type: functional; details: route oral
Rattus norvegicus [37] = experiment: % decrease in systolic blood pressure (SBP) in anesthetized spontaneously hypertensive rats(SHR) after administration of 17.5 mg/kg dose perorally; data statistically significant; details: route oral
Adrenergic receptor beta = Adrenergic receptor beta (Rattus norvegicus, UniProt P18090+P10608+P26255)
Description: Inhibition constant from beta adrenergic receptor binding assay

Rattus norvegicus [38] = experiment: % decrease in heart norepinephrine in anesthetized spontaneously hypertensive rats(SHR) at 5 hours after administration of 4 mg/kg dose perorally; assay type: functional; details: route oral
Rattus norvegicus [39] = experiment: Systolic blood pressure (SBP) in anesthetized spontaneously hypertensive rats(SHR) before administration of 65 mg/kg dose perorally; assay type: functional; details: route oral
Rattus norvegicus [40] = experiment: Systolic blood pressure (SBP) in anesthetized spontaneously hypertensive rats(SHR) at 7.5 hours after administration of 65 mg/kg dose perorally; NS is not statistically significant.

SMILES: CN(C)CC(O)COc1ccc2c(=O)cc(-c3ccccc3)oc2c1 (stereo not given)
- Decrease (Rattus norvegicus [1]): 0%
- % decrease hypothalamus DA (Rattus norvegicus [2]): 29%
- % decrease hypothalamus DA (Rattus norvegicus [3]): 47%
- % decrease SBP (Rattus norvegicus [4]): 0%
- Decrease (Rattus norvegicus [5]): 20%
- Systolic blood pressure (Rattus norvegicus [6]): 207
- % decrease SBP (Rattus norvegicus [7]): 5%
- Decrease (Rattus norvegicus [8]): 7%
- Decrease (Rattus norvegicus [9]): 18%
- Decrease (Rattus norvegicus [10]): 37%
- Decrease in Systolic blood pressure (Rattus norvegicus [11]): Not significant
- Decrease (Rattus norvegicus [12]): 0%

SMILES: CCCNCC(O)COc1ccc2c(=O)cc(-c3ccccc3)oc2c1 (stereo not given) [FLAVODILOL]
- Decrease in heart norepinephrine (Rattus norvegicus [13]): 89%
- % decrease hypothalamus DA (Rattus norvegicus [14]): 37%
- Decrease (Rattus norvegicus [15]): 38%
- Decrease (Rattus norvegicus [16]): 63%
- Decrease in Systolic blood pressure (Rattus norvegicus [17]): 27%
- Systolic blood pressure (Rattus norvegicus [18]): 196
- Decrease in hypothalamus norepinephrine (Rattus norvegicus [19]): 6%
- Decrease (Rattus norvegicus [20]): 4%
- Decrease (Rattus norvegicus [21]): -10%
- Decrease (Rattus norvegicus [22]): 61%
- Decrease in heart norepinephrine (Rattus norvegicus [23]): 38%
- % decrease SBP (Rattus norvegicus [4]): 31%
- Decrease in Systolic blood pressure (Rattus norvegicus [24]): 15%
- Decrease in heart norepinephrine (Rattus norvegicus [25]): 79%
- Decrease (Rattus norvegicus [26]): -6%
- Systolic blood pressure (Rattus norvegicus [27]): 199
- Decrease (Rattus norvegicus [28]): 31%
- % decrease SBP (Rattus norvegicus [29]): 7%
- Decrease (Rattus norvegicus [30]): 11%
- Decrease in hypothalamus norepinephrine (Rattus norvegicus [31]): 2%
- Decrease in Systolic blood pressure (Rattus norvegicus [32]): 32%
- Decrease in hypothalamus norepinephrine (Rattus norvegicus [33]): 0%
- Decrease (Rattus norvegicus [34]): 49%
- % decrease SBP (Rattus norvegicus [35]): 3%
- Decrease in hypothalamus norepinephrine (Rattus norvegicus [5]): 15%
- Decrease in hypothalamus norepinephrine (Rattus norvegicus [36]): 19%
- Systolic blood pressure (Rattus norvegicus [6]): 203
- % decrease SBP (Rattus norvegicus [37]): 6%
- Ki (Adrenergic receptor beta): 4 nM
- Decrease in heart norepinephrine (Rattus norvegicus [9]): 94%
- Decrease in heart norepinephrine (Rattus norvegicus [38]): 21%

SMILES: CC(C)NCC(O)COc1ccc2c(=O)cc(-c3ccc(N)cc3)oc2c1 (stereo not given)
- Systolic blood pressure (Rattus norvegicus [39]): 206
- Decrease in Systolic blood pressure (Rattus norvegicus [40]): Not significant
